What was measured:
PI3Kα kinase = target: T1, PI3Kα kinase (Homo sapiens, UniProt P42336); experiment: PI3Ka Transcreener ADP assay (fluorescence polarization); assay type: biochemical; settings: 10 μM ATP, 30 μmol/L lipid substrate; read-out: IC50, inhibition of PI3Kα kinase
T1 construct: purchased Invitrogen PV4788
Procedure: Fluorescence polarization was used in this assay. The final conditions for kinase assay are 10 μM of ATP, 0.2 ng/μL of PI3Kα kinase, 30 μmol/L of lipid substrate and assay buffer (50 mmol/L of HEPES (pH 7.5), 100 mmol/L of NaCl, 1 mmol/L of EGTA, 3 mmol/L of MgCl2, 1 mmol/L of DTT and 0.03% CHAPS and 2% DMSO).
5 μL of test compounds in 10% DMSO and 10 μL of 0.5 ng/μL PI3K kinase (Invitrogen, PV4788) in assay buffer are put into a 96-well plate (Greiner, Cat. 675076), and then the reaction is started by the addition of 10 μL of 75 μmol/L PIP2, (PS Lipid Substrate Invitrogen, PV5100), and 25 μmol/L ATP mixture. After the mixture is incubated for 60 minutes at room temperature, 25 μL of transcreener Kinase Kit reagent—ADP Detection Mix—(Bellbrook Labs) is added, and the reaction is continued for an additional 1.5 hours. At the end, the plate is read in a Tecan Infinite F500 at excitation of 610 nm and emission of 670 nm.
A standard curve for ADP is obtained in a parallel way by replacing compound and PI3Kα kinase with DMSO and assay buffer, respectively. Different concentration of ADP, 0-10 μM, and ATP, 10-0 μM (ATP+ADP equal to 10 μM) are applied instead of a fixed concentration of ATP in this standard curve assay. Other conditions are the same as described above. The standard curve is plotted using Origin 8.0 software. The inhibition of test compound on ADP production is calculated based on ADP concentration from standard curve. IC50 is obtained using XLfit 2.0 software.

mTOR kinase = target: T2, mTOR kinase (Homo sapiens, UniProt P42345); experiment: mTOR LanthaScreen TR-FRET assay; assay type: biochemical; settings: 10 μmol/L ATP, GFP-4EBP1 substrate; read-out: IC50, inhibition of mTOR
T2 construct: purchased Invitrogen PV4753
T2 sequence (P42345 1360-2549 limits assumed): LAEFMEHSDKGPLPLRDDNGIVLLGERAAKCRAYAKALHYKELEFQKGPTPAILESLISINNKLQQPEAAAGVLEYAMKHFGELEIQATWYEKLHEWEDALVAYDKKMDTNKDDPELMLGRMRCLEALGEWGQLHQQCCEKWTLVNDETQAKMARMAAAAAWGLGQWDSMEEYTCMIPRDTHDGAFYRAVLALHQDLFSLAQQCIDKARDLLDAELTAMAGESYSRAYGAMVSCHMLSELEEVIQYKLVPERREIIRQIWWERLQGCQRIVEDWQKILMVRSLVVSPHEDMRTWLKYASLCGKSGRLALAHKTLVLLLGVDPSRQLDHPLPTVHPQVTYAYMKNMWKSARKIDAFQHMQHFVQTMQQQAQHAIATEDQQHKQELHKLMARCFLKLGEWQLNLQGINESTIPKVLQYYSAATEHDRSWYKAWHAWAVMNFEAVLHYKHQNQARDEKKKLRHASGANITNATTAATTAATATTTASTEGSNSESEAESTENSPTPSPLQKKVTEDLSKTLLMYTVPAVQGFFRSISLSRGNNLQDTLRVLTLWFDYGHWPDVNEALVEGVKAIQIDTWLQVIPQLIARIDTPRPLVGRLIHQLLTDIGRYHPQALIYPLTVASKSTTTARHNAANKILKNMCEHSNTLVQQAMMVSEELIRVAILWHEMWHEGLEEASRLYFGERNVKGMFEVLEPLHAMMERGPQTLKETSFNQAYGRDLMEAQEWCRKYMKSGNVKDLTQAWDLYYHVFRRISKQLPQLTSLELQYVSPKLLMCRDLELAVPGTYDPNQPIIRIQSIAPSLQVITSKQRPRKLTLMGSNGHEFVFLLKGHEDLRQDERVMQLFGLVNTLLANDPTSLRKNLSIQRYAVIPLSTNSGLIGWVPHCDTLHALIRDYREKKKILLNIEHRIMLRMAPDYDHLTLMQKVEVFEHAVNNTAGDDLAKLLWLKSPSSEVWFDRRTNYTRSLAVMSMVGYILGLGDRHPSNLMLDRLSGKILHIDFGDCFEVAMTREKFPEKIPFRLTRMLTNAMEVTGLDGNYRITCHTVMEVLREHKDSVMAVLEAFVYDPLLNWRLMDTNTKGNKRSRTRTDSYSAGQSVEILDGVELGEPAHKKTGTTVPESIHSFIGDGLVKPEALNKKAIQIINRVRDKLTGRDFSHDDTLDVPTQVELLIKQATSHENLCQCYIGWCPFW
Procedure: Compounds are tested using LanthaScreen TR-FRET Assay. The kinase reaction is completed in 384-well black plate (Corning, Cat. 3676). The final conditions for kinase assay are: 10 μmol/L of ATP, 0.2 ng/μL of mTOR kinase, 0.4 μmol/L of GFP-4EBP1 substrate and assay buffer (50 mmol/L of HEPES, pH 7.5, 0.01% of Tween 20, 1 mmol/L of EGTA, 10 mmol/L of MnCl2, 2 mmol/L of DTT and 1% DMSO).
To each well, 2.5 μL of test compounds in 4% DMSO and 2.5 μL of 0.8 ng/μL mTOR kinase (Invitrogen, PV4753) diluted in assay buffer are added. The reaction is initiated by the addition of 5 μL mixture of 0.8 μmol/L GFP-4EBP1 Substrate (Invitorgen, PV4759) and 20 μmol/L ATP mixtures. The mixture is incubated at room temperature for 60 minutes. 10 μL of 20 mmol/L EDTA and 4 nmol/L Tb-anti-p4EBP1 [pThr46] antibody (Invitrogen, PV4755) diluted in TR-FRET dilution buffer are added and incubated for an additional 1 hour. The plate is then read in a BioTek Synergy2 Reader at excitation of 340 nm and emission of 490 nm and 528 nm.
The inhibition of test compound is calculated based on the ratio of 528 nm/490 nm. IC50 of test compound is obtained using XLfit 2.0 software.

T1 sequence (P42336 whole entry): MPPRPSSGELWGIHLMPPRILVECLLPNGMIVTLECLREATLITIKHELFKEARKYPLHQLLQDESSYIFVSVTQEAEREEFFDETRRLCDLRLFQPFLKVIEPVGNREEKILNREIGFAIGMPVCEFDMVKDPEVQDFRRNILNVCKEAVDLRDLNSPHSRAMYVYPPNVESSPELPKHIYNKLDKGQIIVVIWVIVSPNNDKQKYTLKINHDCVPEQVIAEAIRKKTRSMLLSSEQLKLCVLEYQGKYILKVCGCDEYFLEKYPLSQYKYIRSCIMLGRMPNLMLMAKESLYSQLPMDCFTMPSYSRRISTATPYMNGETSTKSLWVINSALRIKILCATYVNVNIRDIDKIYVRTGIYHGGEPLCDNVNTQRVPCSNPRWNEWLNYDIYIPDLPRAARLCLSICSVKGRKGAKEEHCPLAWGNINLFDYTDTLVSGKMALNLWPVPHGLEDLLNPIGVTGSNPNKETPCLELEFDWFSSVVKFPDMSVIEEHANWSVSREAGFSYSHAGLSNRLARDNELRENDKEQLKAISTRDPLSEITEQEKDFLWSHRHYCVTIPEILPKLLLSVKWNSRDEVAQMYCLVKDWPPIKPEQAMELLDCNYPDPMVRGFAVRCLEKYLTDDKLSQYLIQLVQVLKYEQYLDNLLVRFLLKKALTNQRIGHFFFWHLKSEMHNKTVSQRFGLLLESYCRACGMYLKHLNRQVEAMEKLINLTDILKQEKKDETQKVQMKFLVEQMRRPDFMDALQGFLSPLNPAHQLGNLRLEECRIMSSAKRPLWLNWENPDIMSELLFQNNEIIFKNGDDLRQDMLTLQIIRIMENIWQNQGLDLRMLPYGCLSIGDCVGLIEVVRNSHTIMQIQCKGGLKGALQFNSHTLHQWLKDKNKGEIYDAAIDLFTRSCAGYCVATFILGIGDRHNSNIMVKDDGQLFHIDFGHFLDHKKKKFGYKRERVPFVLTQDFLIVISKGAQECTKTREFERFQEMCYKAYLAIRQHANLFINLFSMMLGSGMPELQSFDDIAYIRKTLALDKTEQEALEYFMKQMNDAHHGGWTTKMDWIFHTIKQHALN
T1 sequence (P27986 whole entry partner): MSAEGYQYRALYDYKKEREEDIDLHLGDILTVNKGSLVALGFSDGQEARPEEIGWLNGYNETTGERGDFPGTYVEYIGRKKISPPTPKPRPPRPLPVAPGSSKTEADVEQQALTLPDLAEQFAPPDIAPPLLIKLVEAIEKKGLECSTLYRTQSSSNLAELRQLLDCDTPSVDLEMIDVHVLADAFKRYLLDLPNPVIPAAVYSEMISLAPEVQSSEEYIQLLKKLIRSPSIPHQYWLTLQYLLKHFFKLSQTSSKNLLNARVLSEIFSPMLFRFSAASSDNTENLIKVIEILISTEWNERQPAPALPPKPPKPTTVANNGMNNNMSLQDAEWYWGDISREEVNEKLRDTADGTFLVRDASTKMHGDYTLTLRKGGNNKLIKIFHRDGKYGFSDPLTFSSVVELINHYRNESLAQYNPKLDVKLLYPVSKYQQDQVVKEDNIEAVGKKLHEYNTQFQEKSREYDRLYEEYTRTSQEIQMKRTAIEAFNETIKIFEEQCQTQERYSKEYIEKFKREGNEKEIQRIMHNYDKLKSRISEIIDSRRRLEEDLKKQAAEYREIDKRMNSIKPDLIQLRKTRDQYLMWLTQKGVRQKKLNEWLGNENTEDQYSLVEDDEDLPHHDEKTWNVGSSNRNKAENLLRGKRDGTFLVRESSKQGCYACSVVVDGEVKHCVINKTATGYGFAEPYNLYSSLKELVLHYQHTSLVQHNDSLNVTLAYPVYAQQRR

IC50 (PI3Kα kinase)	IC50 (mTOR kinase)	Structure (SMILES)
< 100 nM	< 100 nM	Nc1ncc(-c2ccc3ncc4nnn(C5CCOCC5)c4c3n2)cc1C(F)(F)F [Compound 10]
< 100 nM	< 100 nM	CN(C)C(=O)CN1CCC(n2nnc3cnc4ccc(-c5cnc(N)c(C(F)(F)F)c5)nc4c32)CC1 [Compound 43, 2-(4-(8-(6-amino-5-(trifluoromethyl)pyridin-3-yl)-1H-[1,2,3]triazolo[4,5-c][1,5]naphthyridin-1-yl)piperidin-1-yl)-N,N-dimethylacetamide]
< 100 nM	< 100 nM	CC(C)(C#N)c1ccc(-c2nnc3cnc4ccc(-c5cnc(N)c(F)c5)cc4n23)cc1 [Compound 66]
< 100 nM	< 100 nM	CC(C)(C#N)c1ccc(-c2nnc3cnc4ccc(-c5cnc(N)c(C(F)(F)F)c5)cc4n23)cc1 [Compound 49, 2-(4-(8-(6-amino-5-(trifluoromethyl)pyridin-3-yl)-[1,2,4]triazolo[4,3-a]quinoxalin-1-yl)phenyl)-2-methylpropanenitrile]
< 100 nM	< 100 nM	COc1ncc(-c2ccc3ncc4nnc(C)n4c3c2)cc1NS(=O)(=O)c1ccccc1 [Compound 181]
< 100 nM	< 100 nM	C[C@H](O)C(=O)N1CCC(n2nnc3cnc4ccc(-c5cnc(N)c(C(F)(F)F)c5)nc4c32)CC1 [Compound 1, (S)-1-(4-(8-(6-amino-5-(trifluoromethyl)pyridin-3-yl)-1H-[1,2,3]triazolo[4,5-c][1,5]naphthyridin-1-yl)piperidin-1-yl)-2-hydroxypropan-1-one]
< 100 nM	< 100 nM	COc1ncc(-c2ccc3ncc4nc(C)n(C)c4c3n2)cc1NS(=O)(=O)C(F)(F)F [Compound 166]
< 100 nM	< 100 nM	N#CC1(C(=O)N2CCC(n3nnc4cnc5ccc(-c6cnc(N)c(C(F)(F)F)c6)nc5c43)CC2)CC1 [Compound 33]
< 100 nM	< 100 nM	CN(C)C(=O)CN1CCC(n2cnc3cnc4ccc(-c5cnc(N)c(C(F)(F)F)c5)nc4c32)CC1 [Compound 98]
< 100 nM	< 100 nM	COc1ncc(-c2ccc3ncc4nnc(CN(C)C)n4c3c2)cc1NS(=O)(=O)C(F)(F)F [Compound 165]
< 100 nM	< 100 nM	COc1ncc(-c2ccc3ncc4ncn(C)c4c3n2)cc1NS(=O)(=O)C(F)(F)F [Compound 159]
< 100 nM	< 100 nM	CCNC(=O)N1CCC(n2nnc3cnc4ccc(-c5cnc(N)c(C(F)(F)F)c5)nc4c32)CC1 [Compound 45]
< 100 nM	< 100 nM	Nc1ncc(-c2ccc3ncc4nnn(-c5ccc6[nH]ncc6c5)c4c3c2)cc1C(F)(F)F [Compound 14]
< 100 nM	< 100 nM	COc1ncc(-c2ccc3ncc4nnc(CN(C)C)n4c3c2)cc1NS(=O)(=O)c1ccc(F)cc1F [Compound 158]
< 100 nM	< 100 nM	COc1ncc(-c2ccc3ncc4nn(C)c(=O)n4c3c2)cc1NS(=O)(=O)c1ccc(F)cc1F [Compound 148]
< 100 nM	< 100 nM	COc1ncc(-c2ccc3ncc4nnc(OC)n4c3c2)cc1NS(=O)(=O)c1ccc(F)cc1F [Compound 157]
< 100 nM	< 100 nM	CCn1nc2cnc3ccc(-c4cnc(OC)c(NS(=O)(=O)c5ccc(F)cc5F)c4)cc3n2c1=O [Compound 149]
< 100 nM	< 100 nM	Nc1ncc(-c2ccc3ncc4nnn(C5CCN(CCO)CC5)c4c3n2)cc1C(F)(F)F [Compound 46]
< 100 nM	< 100 nM	Cc1nc2cnc3ccc(-c4cnc(N)c(C(F)(F)F)c4)nc3c2n1C1CCN(CC2(C)COC2)CC1 [Compound 121]
< 100 nM	< 100 nM	Cc1ncc(-c2ccc3ncc4nnc(C)n4c3c2)cc1NS(=O)(=O)c1ccc(F)cc1F [Compound 156]
< 100 nM	< 100 nM	Nc1ncc(-c2ccc3ncc4nnn(C5CCN(C(=O)C6CC6)CC5)c4c3n2)cc1C(F)(F)F [Compound 9]
< 100 nM	< 100 nM	Nc1ncc(-c2ccc3ncc4nnn(C5CCN(C(=O)CO)CC5)c4c3n2)cc1C(F)(F)F [Compound 25]
< 100 nM	< 100 nM	COc1ncc(-c2ccc3ncc4ncn(C)c4c3n2)cc1NS(=O)(=O)c1ccc(F)cc1F [Compound 153]
< 100 nM	< 100 nM	CC(C)(C#N)c1ccc(-c2nnc3cnc4ccc(-c5ccc6nc(N)sc6c5)cc4n23)cn1 [Compound 56]

IC50 (PI3Kα kinase)	IC50 (mTOR kinase)	Structure (SMILES)
< 100 nM	< 100 nM	Nc1ncc(-c2ccc3ncc4ncn(C5CCOCC5)c4c3n2)cc1C(F)(F)F [Compound 106]
< 100 nM	< 100 nM	Cc1nc2cnc3ccc(-c4cnc(N)c(C(F)(F)F)c4)nc3c2n1C1CCN(CC(=O)N(C)C)CC1 [Compound 123]
< 100 nM	–	CC(C)(C#N)C(=O)c1ccc(-c2nnc3cnc4ccc(-c5cnc(N)c(C(F)(F)F)c5)cc4n23)cc1 [Compound 68]
< 100 nM	–	Cc1ccc(-c2ccc3ncc4nnn(C5CCN(C(=O)[C@H](C)O)CC5)c4c3n2)cn1 [Compound 2]
< 100 nM	–	COCCN1CCC(n2c(C)nc3cnc4ccc(-c5cnc(N)c(C(F)(F)F)c5)nc4c32)CC1 [Compound 130]
< 100 nM	–	Nc1ncc(-c2ccc3ncc4nnn(C5CCN(C(=O)c6ccccn6)CC5)c4c3n2)cc1C(F)(F)F [Compound 40]
< 100 nM	–	CC(=O)N1CCC(Cc2nnc3cnc4ccc(-c5ccc6nc(N)sc6c5)cc4n23)CC1 [Compound 83]
< 100 nM	–	Nc1ncc(-c2ccc3ncc4nnn(C5CCN(CC6CCOCC6)CC5)c4c3n2)cc1C(F)(F)F [Compound 48, 5-(1-(1-((tetrahydro-2H-pyran-4-yl)methyl)piperidin-4-yl)-1H-[1,2,3]triazolo[4,5-c][1,5]naphthyridin-8-yl)-3-(trifluoromethyl)pyridin-2-amine]
< 100 nM	–	COc1cc(-c2ccc3ncc4ncn(-c5ccc(C(C)(C)C#N)nc5)c4c3n2)cnc1N [Compound 95]
< 100 nM	–	Cc1nc2cnc3ccc(-c4cnc(N)c(C(F)(F)F)c4)nc3c2n1C1CCN(S(C)(=O)=O)CC1 [Compound 138]
< 100 nM	–	Cc1nc2cnc3ccc(-c4cnc(N)c(C(F)(F)F)c4)nc3c2n1C1CCOCC1 [Compound 133]
< 100 nM	–	Cc1nc2cnc3ccc(-c4cnc5[nH]ncc5c4)nc3c2n1C1CCOCC1 [Compound 134]
< 100 nM	–	CC(C)(C#N)c1ccc(-c2nnc3cnc4ccc(-c5cnc(N)c(Cl)c5)cc4n23)cc1 [Compound 77]
< 100 nM	–	Cc1nc2cnc3ccc(-c4cnc5[nH]ccc5c4)nc3c2n1C1CCOCC1 [Compound 135]
< 100 nM	–	N#Cc1cccc(-c2nnc3cnc4ccc(-c5cnc(N)c(C(F)(F)F)c5)cc4n23)c1 [Compound 62]
< 100 nM	–	Cc1cc(-c2ccc3ncc4nnc(-c5ccc(C(C)(C)C#N)nc5)n4c3c2)cnc1N [Compound 57]
< 100 nM	–	Nc1ncc(-c2ccc3ncc4nnc(-c5ccc(F)cc5)n4c3c2)cc1C(F)(F)F [Compound 70]
< 100 nM	–	Cc1nc2nnc3ccc(-c4cnc(N)c(C(F)(F)F)c4)cc3c2n1-c1ccc(C(C)(C)C#N)cc1 [Compound 184]
< 100 nM	–	CCS(=O)(=O)Nc1cc(-c2ccc3ncc4nnc(C)n4c3c2)cnc1OC [Compound 164]
< 100 nM	–	Nc1ncc(-c2ccc3ncc4nnn(C5CCN(C(=O)C6CC6)CC5)c4c3n2)cc1F [Compound 11]
< 100 nM	–	CC(C)(C#N)c1ccc(-n2cnc3cnc4ccc(-c5cnc(N)c(C(F)(F)F)c5)nc4c32)cc1 [Compound 104]
< 100 nM	–	COc1ncc(-c2ccc3ncc4nnc(C)n4c3c2)cc1NS(=O)(=O)c1ccc(F)cc1 [Compound 182]
< 100 nM	–	C=CC(=O)N1CCC(n2nnc3cnc4ccc(-c5cnc(N)c(C)c5)nc4c32)CC1 [Compound 29]
< 100 nM	–	Nc1nc2ccc(-c3ccc4ncc5nnc(-c6ccc(F)cn6)n5c4c3)cc2s1 [Compound 60]
